# From publication PMC9388626, “STUB1 is an intracellular checkpoint for interferon gamma sensing” (Scientific Reports, 2022)
# Key:
# Type in all cases: cell-based, murine
# [1] = system: B16-F10 cells; assay: Western blot, protein expression after 24 h IFNγ
# Method: Parental, CRISPR-edited or biologic-overexpressed tumour cells were seeded in a cell density of 60,000 (B16-F10), 150,000 (CT26), 100,000 (A375), or 200,000 (A549) per well in 12-well plate filled with 0.8 ml culture media + 10% FBS. After overnight incubation, the culture media were replaced with 1 ml fresh media supplemented with 10% FBS and the designated concentration of the recombinant mouse IFNγ (R&D Systems, #485-MI-100) or recombinant human IFNγ (R&D Systems, #285-IF-100). The cells were stimulated with the cytokine for 24 h before they were harvested by trypsinization for flow cytometry, western blot, or qPCR analysis (6 h treatment).
# Cells were dissociated from the wells with 0.25% trypsin (Gibco, 25200056). After rinsing with 0.5 ml PBS, the cell pellets were lysed with chilled cell lysis buffer (Cell Signaling Technology, #9803) supplemented with Halt protease inhibitor cocktail (Thermo Scientific, #78430) and phosphatase inhibitor (Sigma-Aldrich, # 4906837001) for 30 min with intermittent vortexing. The lysate was transferred into PCR-strip tubes and sonicated in a chilled water bath sonicator (QSonica). Lysates were clarified by centrifugation at 15,000 rpm at 4 °C for 15 min. Protein concentration was determined using BCA protein assay kit (Pierce, #23225). The lysates were mixed with LDS sample buffer (Life Technologies, NP0008) and sample reducing agent (Life Technologies, NP0009), followed by heating at 70 °C for 10 min to fully denature the protein. […] Membrane blots were pre-stained with total protein stain (LI-COR, # 926-11016) and imaged with Odyssey CLx. […] The blots were finally probed, for overnight at 4 °C, with the appropriate primary antibodies diluted in Intercept (TBS) blocking buffer supplemented with 0.1% (v/v) Tween-20, followed by the secondary antibodies (IRDye 800CW donkey anti-rabbit or anti-mouse IgG, LI-COR) for 1 h at room temperature. Fluorescent signals were imaged and quantified using Odyssey CLx and Image Studio v5.0. Primary antibodies used were: STUB1/CHIP (Cell Signaling Technology, #2080, 1:2000 dilution), STAT1 (Cell Signaling Technology, #14995, 1:10,000 dilution), phospho-Tyr701-STAT1 (Cell Signaling Technology, #9167, 1:2000 dilution), STAT2 (Cell Signaling Technology, #72604, 1:2000 dilution), IRF1 (Cell Signaling Technology, #8478, 1:2000 dilution), PSMB8 (Cell Signaling Technology, #13635, 1:2000 dilution), PSMB9 (Abcam, ab184172, 1:10,000 dilution), and PSMB10 (Abcam, ab183506, 1:10,000 dilution).
# [2] = system: B16-F10 cells; assay: Gene expression profiling with NanoString PanCancer IO 360; conditions: Stub1-null B16-F10, 0.03 ng ml^−1 IFNγ, 6 h or 24 h
# Method: After overnight incubation, the culture media were replaced with fresh media (DMEM + 10% FBS) supplemented with 0.03 ng ml^−1 of recombinant mouse IFNγ (R&D Systems, #485-MI-100). Total RNA from untreated cells (24 h) and IFNγ-treated cells (6 or 24 h) were extracted with RNeasy plus mini kit (Qiagen, 74134) according to manufacturer’s protocol. An input of 150 ng RNA from each sample was mixed with the NanoString reporter and capture probes (nCounter Mouse PanCancer IO 360, # XT-CSPS-MIO360-12), and incubated at 65 °C for 20 h. The hybridized samples were processed on the nCounter prep station, and the resulting cartridge was scanned by the nCounter digital analyzer using 555 fields of view. Raw count data were evaluated for quality control and normalized with 19 housekeeping genes using nSolver 4.0 software (Supplementary Table S3). Tlk2 was excluded from the housekeeping gene due to weak expression (RNA counts < 80). […] Weakly expressed genes, where the normalized RNA counts were consistently less than 80 in all samples, were excluded from fold change analysis, resulting in an evaluable set of 493 out of 750 genes (Supplementary Fig. 4a). As an overview, all 750 targeted genes were included in the scatter plot analysis (Supplementary Fig. 4b–d).
# [3] = system: B16-F10 cells; assay: Validation of monoclonal Stub1-knockout lines (Western, ICE CRISPR analysis); conditions: single clone from Stub1-knockout B16-F10 cells
# Method: Tumour cells were genetically edited by electroporating the Cas9/crRNA/tracrRNA or Cas9/sgRNA ribonucleoprotein (RNP) complexes into cells using the 4D-nucleofector system (Lonza). To prepare the guide RNA complex, a 1:1 mixture of Alt-R crRNA and tracrRNA (50 µM each, IDT) in nuclease-free duplex buffer (IDT) was heated at 95 °C for 5 min, followed by cooling to room temperature. The crRNA/tracrRNA complex or the sgRNA (150 pmol) was mixed with Alt-R S.p. HiFi Cas9 Nuclease V3 (100 pmol, IDT, #1081060), and the resulting mixture was incubated at room temperature for 10 min to form the final RNP complexes which were used immediately. In parallel, the harvested tumour cells were rinsed with PBS. After re-suspending in 20 µl nucleofactor solution (Lonza), the cell suspension was added to the final RNP complexes (4.6 µl) in microcentrifuge tube. The resulting cell suspension was transferred to a designated well of nucleocuvette strip which was then pulsed with the nucleofector system using a preset program. After pulsing, culture media (75 µl) was added and the cell suspension was transferred to a designated well of a 12-well plate filled with 1.0 ml culture media. After 48 h incubation, the CRISPR-edited B16-F10 were subcloned by limiting dilution. The monoclonal cell lines were validated by Western blotting and analyzing the Sanger sequencing results of the PCR amplicon (~ 800 bp) flanking the crRNA-targeted site using ICE v2 CRISPR analysis tool (Synthego). For CT26, the cells were sorted for the top 50th percentile of IFNGR1-high population using BD FACSAria to enrich for the Stub1-null cells (Supplementary Fig. 10a). Human tumour cells, e.g., DU145, PC-3 and MCF7, were used right after the CRISPR editing. Sorting or subcloning was not applied to the human cell lines, since these lines were studied for a brief period in in vitro setting. Loss of STUB1 protein in the human cell lines was confirmed by Western blot analysis.
substance,measurement,setting,value
IFNγ,"Protein expression of STAT1, STAT2, IRF1","[1]; Stub1-null B16-F10, 24 h IFNγ","upregulation of STAT1, STAT2, and IRF1 after 24 h stimulation with IFNγ"
same,Induction of interferon-stimulated genes,[2],enhanced response to IFNγ treatment
gStub1 #1 (guide GCATTGCTAAGAAGAAGCGC; chemistry not given here),PSMB8 (Fig. 1e),[1]; IFNg 0.01 ng/ml,171356
same,PSMB9 (Fig. 1e),[1]; IFNg 0.01 ng/ml,214373
same,PSMB10 (Fig. 1e),[1]; IFNg 0.01 ng/ml,83490
same,STAT1 (Fig. 1e),[1]; IFNg 0.01 ng/ml,156019
same,PSMB8 (Fig. 1e),[1]; IFNg 0.03 ng/ml,202198
same,PSMB9 (Fig. 1e),[1]; IFNg 0.03 ng/ml,947224
same,PSMB10 (Fig. 1e),[1]; IFNg 0.03 ng/ml,557217
same,STAT1 (Fig. 1e),[1]; IFNg 0.03 ng/ml,430481
same,PSMB8 (Fig. 1e),[1]; IFNg 0.10 ng/ml,232103
same,PSMB9 (Fig. 1e),[1]; IFNg 0.10 ng/ml,2077116
same,PSMB10 (Fig. 1e),[1]; IFNg 0.10 ng/ml,2055449
same,STAT1 (Fig. 1e),[1]; IFNg 0.10 ng/ml,714350
same,PSMB8 (Fig. 1e),[1]; IFNg 0.30 ng/ml,334603
same,PSMB9 (Fig. 1e),[1]; IFNg 0.30 ng/ml,3663399
same,PSMB10 (Fig. 1e),[1]; IFNg 0.30 ng/ml,3429074
same,STAT1 (Fig. 1e),[1]; IFNg 0.30 ng/ml,1243340
same,PSMB8 (Fig. 1e),[1]; IFNg 1.00 ng/ml,529221
same,PSMB9 (Fig. 1e),[1]; IFNg 1.00 ng/ml,4935730
same,PSMB10 (Fig. 1e),[1]; IFNg 1.00 ng/ml,4476630
same,STAT1 (Fig. 1e),[1]; IFNg 1.00 ng/ml,1537016
same,PSMB8 (Fig. 1e),[1]; IFNg Nil,173338
same,PSMB9 (Fig. 1e),[1]; IFNg Nil,17374
same,PSMB10 (Fig. 1e),[1]; IFNg Nil,18816
same,STAT1 (Fig. 1e),[1]; IFNg Nil,22848
same,Comment (knock-out by Western blot and ICE analysis),[3],complete knock-out as assessed by Western blot and ICE analysis
same,Indel,[3],-12 -15
same,Indel % (by Synthego ICE),[3],93%
